One data set concerns the target T1, α1β1-collagen IV (Homo sapiens, UniProt P05556+P56199).
T1 construct: expressed in transfected cells; host or cells: K562 transfected with α1 integrin (gift of Dr. M. Hemler)
The data set can be described thus: Adhesion of α1-K562 overexpressor cells to immobilized collagen IV. Type of data set: cell-based. The settings on record: α1-K562 overexpressing cells, collagen IV; n=6; Table S6; read-out: IC50 α1β1 (linear peptides). The protocol: (§1) Cell adhesion assay was carried out as previously described[47] with minor modifications. The day before the experiment, each well was coated with VCAM-1 (3 mg/mL) immobilized on the 96-well plate in PBS by overnight incubation at 4 °C. Thereafter, nonspecific binding was blocked by incubating the wells with 1% (w/v) bovine serum albumin (BSA) in Hank’s Balanced Salt Solution (HBSS) containing 5 mM MgCl2 at room temperature for 1 h before use. The cells were labeled by incubation with 12.5 μM 5-chloromethylfluorescein diacetate (CMFDA) in HBSS without 1% BSA at 37 °C for 30 min. The labeled cells were then centrifuged at 1000 rpm and washed twice with HBSS containing 1% BSA to remove excess CMFDA. Labeled cells (about 1 × 10^5 cells/well) were plated on each well in the presence or absence of visabrons and incubated at 37 °C for 60 min. Unbound cells were removed by washing the wells three times with 1% (w/v) BSA in HBSS, and bound cells were lysed by the addition of 0.5% Triton X-100 (diluted in DDW). The fluorescence in each well was quantified with a SPECTRAFluor Plus plate reader (Tecan), at λex = 485 nm and λem = 530 nm. To determine the number of adhered cells from the fluorescence values, a standard curve was generated by serial dilution of known numbers of CMFDA-labeled cells. […]
(§2) Table S6. TMLD- linear peptides inhibition of adhesion of integrin expressing cells to the respective immobilized ligands a a The cells were incubated for 30 min at 37 °C with the cells (1 x 105) in the 96 -well plate, previously covered with extracellular matrix ligand, in 100 µL of HBSS containing calcium and magnesium. After being washed with the same buffer, the adhered cells were lysed by Triton X-100, and the plate was read using Tecan spectrofluorimeter. The inhibitory dose 50% (IC 50) values represent ing mean ± standard deviatio ns (n=6) were calculated from dose response curves. bJurkat cells,VCAM -1; c α9-SW480 overexpressing cells, VCAM-1; d α1-K562 overexpressing cells, collagen IV ;e α2-K562 overexpressing cells, collagen I; f K562 wild type

The target in the next data set is T2, α2β1-collagen I (Homo sapiens, UniProt P05556+P17301).
T2 construct: expressed in transfected cells; host or cells: K562 transfected with α2 integrin (gift of Dr. M. Hemler)
The data set can be described thus: Adhesion of α2-K562 overexpressor cells to immobilized collagen I. Type of data set: cell-based. The settings on record: α2-K562 overexpressing cells, collagen I; n=6; Table S6; read-out: IC50 α2β1 (linear peptides). The protocol: as §1, §2

Another data set has as its target T3, α5β1-fibronectin (Homo sapiens, UniProt P05556+P08648).
T3 construct: host or cells: K562 wild type
The data set can be described thus: Adhesion of wild-type K562 cells to immobilized fibronectin. Type of data set: cell-based. The settings on record: K562 wild type cells, fibronectin; n=6; Table S6; read-out: IC50 α5β1 (linear peptides). As for the experimental part:
as §1, §2

Data set [1] concerns the target T4, α4β1 (Jurkat lymphocytes-VCAM-1) (Homo sapiens, UniProt P05556+P13612).
T4 construct: host or cells: Jurkat (untreated or TNFα-treated)
The data set is described as follows: Adhesion of Jurkat lymphocytes to immobilized VCAM-1. Type of data set: cell-based. The settings on record: Jurkat cells, VCAM-1; n=6; Table S6; read-out: IC50 α4β1 (linear peptides). As for the experimental part:
as §1, §2

Another data set concerns the target T5, α9β1 (Homo sapiens, UniProt P05556+Q13797).
T5 construct: generated by transfection with full-length α9 expression plasmid pcDNAIneoa9; expressed in transfected cells; host or cells: SW480 transfected with pcDNAIneoa9
The data set is described as follows: Adhesion of α9-SW480 overexpressing cells to VCAM-1. The settings on record: n=6, Table S6, read-out: IC50 α9β1 (linear peptides). Format: cell-based. As for the experimental part: as §2, with “type […]” for “type”
(1 picture or pasted object on this page, not shown here)

Data set [2] is classed as in vitro ADME, male Wistar rats. The settings on record: incubation in rat plasma, 37 °C. As for the experimental part:
Figure S7- Metabolic stability of linear (blue) and cyclic Visabrons in rat plasma (n=3) […]
(orange, green, red). The […]
amount of peptides is presented as a percentage of the sample at time 0.
Figure S8- A. Calibration curve of Visabron c(4-4) (prepared by spiking the standard working stock solution with 15 μl of the different concentration, 20 μl metoprolol (10 μg/mL) and 135 -μl blank rat plasma. B. Profile of plasma concentration of Visabron c(4-4) vs time in rats following i.v. bolus administr ation of 0.515 mg/kg; C. semi - logarithmic plot of plasma concentration of Visabron c(4-4) vs time (n = 4 , mean ± SD). […]
For peptide sequencing, the protein digest mixture was subjected to electrospray ionization MS/MS analysis using a QTrap mass spectrometer, equipped with a nanospray source. […] Quantitation of free cysteine residues and disulfide bonds was done as previously described4. […]

The structures appear in SMILES notation. Peptide text beside a SMILES is read from it.

T2 sequence (P17301 30-1181): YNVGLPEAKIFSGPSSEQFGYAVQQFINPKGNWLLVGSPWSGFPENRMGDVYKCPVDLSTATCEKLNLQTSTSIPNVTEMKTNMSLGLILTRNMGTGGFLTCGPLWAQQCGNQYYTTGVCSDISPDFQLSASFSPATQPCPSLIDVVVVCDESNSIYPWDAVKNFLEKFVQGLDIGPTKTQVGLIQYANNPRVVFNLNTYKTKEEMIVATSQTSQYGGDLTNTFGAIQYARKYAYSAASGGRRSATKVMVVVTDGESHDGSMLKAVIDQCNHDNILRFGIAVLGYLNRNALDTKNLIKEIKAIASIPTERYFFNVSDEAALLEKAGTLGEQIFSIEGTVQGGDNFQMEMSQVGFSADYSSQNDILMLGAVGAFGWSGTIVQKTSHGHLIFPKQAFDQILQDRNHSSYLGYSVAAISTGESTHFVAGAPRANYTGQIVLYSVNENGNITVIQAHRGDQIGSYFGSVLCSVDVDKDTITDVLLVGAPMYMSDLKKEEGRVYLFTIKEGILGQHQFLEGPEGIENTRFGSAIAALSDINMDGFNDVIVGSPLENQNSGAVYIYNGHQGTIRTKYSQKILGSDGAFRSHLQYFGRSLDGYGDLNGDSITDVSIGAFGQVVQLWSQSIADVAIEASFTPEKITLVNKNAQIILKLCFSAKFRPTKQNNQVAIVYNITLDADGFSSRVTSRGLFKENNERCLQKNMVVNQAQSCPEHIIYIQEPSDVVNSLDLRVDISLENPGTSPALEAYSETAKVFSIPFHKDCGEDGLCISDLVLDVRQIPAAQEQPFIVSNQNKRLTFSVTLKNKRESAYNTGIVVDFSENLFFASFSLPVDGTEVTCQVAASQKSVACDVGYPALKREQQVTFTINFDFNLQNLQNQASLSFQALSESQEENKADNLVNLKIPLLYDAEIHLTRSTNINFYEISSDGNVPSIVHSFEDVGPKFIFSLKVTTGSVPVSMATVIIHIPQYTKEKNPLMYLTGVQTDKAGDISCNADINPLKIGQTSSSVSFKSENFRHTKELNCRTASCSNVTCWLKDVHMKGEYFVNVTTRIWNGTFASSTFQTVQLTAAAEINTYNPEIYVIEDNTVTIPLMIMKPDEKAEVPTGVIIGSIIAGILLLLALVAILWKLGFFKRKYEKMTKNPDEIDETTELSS
T2 sequence (P05556 21-798): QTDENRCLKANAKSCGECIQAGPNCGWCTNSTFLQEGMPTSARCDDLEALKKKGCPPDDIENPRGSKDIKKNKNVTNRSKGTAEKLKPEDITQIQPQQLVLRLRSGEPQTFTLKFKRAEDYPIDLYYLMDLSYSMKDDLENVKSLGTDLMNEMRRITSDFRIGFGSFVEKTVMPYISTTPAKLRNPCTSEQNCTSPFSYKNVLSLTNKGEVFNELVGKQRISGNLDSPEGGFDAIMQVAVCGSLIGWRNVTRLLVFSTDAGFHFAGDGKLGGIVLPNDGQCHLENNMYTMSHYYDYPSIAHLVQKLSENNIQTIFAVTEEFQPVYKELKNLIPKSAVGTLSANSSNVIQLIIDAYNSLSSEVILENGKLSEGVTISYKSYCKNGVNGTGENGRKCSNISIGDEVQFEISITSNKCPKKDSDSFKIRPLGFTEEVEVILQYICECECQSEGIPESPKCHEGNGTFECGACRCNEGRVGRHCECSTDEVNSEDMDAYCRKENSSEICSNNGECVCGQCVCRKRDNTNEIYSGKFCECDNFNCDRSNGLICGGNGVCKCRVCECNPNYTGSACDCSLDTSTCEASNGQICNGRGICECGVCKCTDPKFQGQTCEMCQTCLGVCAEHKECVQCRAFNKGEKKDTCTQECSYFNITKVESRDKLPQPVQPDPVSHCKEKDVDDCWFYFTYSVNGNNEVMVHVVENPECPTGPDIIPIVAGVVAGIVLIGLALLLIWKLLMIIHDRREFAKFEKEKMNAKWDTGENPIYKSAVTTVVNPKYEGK
T5 sequence (Q13797 30-1035): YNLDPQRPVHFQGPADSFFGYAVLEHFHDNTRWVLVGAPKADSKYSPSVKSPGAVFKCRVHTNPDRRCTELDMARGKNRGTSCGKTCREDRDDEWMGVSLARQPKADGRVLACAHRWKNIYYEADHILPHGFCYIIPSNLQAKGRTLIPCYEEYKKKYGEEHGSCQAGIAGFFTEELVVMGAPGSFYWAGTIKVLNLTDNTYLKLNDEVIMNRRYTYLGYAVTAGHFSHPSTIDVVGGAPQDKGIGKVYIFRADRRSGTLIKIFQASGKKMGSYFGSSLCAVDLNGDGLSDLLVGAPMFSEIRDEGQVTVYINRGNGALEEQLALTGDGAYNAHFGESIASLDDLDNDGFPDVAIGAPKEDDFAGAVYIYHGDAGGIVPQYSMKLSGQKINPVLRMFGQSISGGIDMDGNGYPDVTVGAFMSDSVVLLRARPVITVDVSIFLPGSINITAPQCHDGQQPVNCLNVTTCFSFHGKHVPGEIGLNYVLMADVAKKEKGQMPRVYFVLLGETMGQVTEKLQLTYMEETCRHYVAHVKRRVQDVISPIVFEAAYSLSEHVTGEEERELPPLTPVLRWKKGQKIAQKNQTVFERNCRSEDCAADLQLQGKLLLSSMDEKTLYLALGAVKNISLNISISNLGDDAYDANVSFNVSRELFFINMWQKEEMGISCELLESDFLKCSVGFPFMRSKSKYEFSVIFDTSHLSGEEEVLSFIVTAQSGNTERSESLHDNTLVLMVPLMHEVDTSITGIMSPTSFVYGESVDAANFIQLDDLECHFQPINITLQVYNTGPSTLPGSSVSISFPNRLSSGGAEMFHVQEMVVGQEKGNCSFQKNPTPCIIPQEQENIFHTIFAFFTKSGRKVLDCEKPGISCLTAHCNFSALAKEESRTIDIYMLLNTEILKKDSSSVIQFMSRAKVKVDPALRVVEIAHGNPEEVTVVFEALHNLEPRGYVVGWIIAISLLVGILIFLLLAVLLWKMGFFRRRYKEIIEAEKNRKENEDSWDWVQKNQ
T5 sequence (P05556 21-798): as the sequence (P05556 21-798) above
T1 sequence (P56199 29-1179): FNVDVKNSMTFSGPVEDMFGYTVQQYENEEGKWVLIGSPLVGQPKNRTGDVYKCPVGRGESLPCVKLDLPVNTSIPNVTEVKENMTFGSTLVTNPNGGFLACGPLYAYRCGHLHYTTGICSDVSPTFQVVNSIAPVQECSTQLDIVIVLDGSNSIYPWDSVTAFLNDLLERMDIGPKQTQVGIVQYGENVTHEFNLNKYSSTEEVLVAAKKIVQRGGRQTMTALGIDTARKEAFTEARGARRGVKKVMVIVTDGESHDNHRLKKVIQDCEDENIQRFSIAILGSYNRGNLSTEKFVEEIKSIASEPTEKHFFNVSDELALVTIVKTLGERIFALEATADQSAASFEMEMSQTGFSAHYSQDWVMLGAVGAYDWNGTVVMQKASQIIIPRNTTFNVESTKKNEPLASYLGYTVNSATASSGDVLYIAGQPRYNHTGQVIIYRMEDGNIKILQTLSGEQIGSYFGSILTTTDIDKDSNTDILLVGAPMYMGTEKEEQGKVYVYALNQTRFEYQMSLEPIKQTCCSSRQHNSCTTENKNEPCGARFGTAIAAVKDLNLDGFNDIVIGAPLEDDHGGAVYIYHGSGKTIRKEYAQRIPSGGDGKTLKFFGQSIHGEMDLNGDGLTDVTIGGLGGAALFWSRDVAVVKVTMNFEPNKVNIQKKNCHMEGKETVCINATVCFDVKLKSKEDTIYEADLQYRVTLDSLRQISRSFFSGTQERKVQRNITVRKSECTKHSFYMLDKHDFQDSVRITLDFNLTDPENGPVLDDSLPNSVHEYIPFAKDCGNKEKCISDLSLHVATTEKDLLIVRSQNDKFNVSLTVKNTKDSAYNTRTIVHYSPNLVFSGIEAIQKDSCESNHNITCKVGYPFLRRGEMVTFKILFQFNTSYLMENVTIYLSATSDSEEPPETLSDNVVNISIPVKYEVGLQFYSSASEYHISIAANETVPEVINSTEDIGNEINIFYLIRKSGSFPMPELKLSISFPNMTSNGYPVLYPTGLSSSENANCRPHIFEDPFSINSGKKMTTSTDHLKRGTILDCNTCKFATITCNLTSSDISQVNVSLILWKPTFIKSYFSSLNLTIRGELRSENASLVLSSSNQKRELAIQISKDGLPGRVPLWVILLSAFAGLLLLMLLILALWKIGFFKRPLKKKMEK
T1 sequence (P05556 21-798): as the sequence (P05556 21-798) above

What is called IC50 is the concentration that gives 50% inhibition. A word on the half-life: it is how long it takes for the measured level to halve. Regarding `CSCC[C@H](NC(=O)[C@@H](NC(=O)CNC(=O)[C@@H](N)CCCCN)[C@@H](C)O)C(=O)N[C@@H](CC(C)C)C(=O)N[C@@H](CC(=O)O)C(=O)NCC(=O)N[C@@H](CC(C)C)C(N)=O` [sequence 6, KG39TMLDG44L] (H-KGTMLDGL-NH2; N-terminus and C-terminus assumed), the IC50 at α1β1-collagen IV was more than 10 mM; at α2β1-collagen I, more than 10 mM; on α5β1-fibronectin, more than 10 mM; in data set [1], 1.55 ± 0.125 mM; on α9β1 it was 1.45 ± 0.125 mM. The same molecule came in with a half-life in data set [2] of 7 min.

For the origin of these results see PMC8717366, “Synthesis and Pharmacological Characterization of Visabron, a Backbone Cyclic Peptide Dual Antagonist of α4β1 (VLA-4)/α9β1 Integrin for Therapy of Multiple Sclerosis” (JACS Au, 2021).
